Assay results published in patent publication US20130267551A1, “SUBSTITUTED HYDROGENATED THIENO-PYRROLO[3,2-C]PYRIDINE, LIGANDS, A PHARMACEUTICAL COMPOSITION AND A METHOD FOR USING THE ABOVE” (ALLA CHEM, LLC, priority 2010, published 2013).
Where a name gives a salt, the structure may show the parent alone. Read-outs that look alike come from different tables or passages of the source.

Columns and labels:
Serotoninergic 5-HT1B = assay: competitive radioligand binding, Serotoninergic 5-HT1B; conditions: compound concentration of 1 μM
Description: (§1) Profiles of pharmacological activity of thieno-pyrrolo[3,2-c]pyridines of the general formula 1. Biological activity test of compounds of the general formula 1 was carried out in the setting of competitive radioligand binding [I. Okun, S. Tkachenko, A. Khvat, et al., Current Alzheimer Research, 7(2), 97-112 (2010)], using a wide range of therapeutic targets including G-protein coupled receptors (GPCR), ion channels and neuromediator transporters. The tested activity was determined by quantitative measurement of radio-labelled ligand displacement by tested compounds of the general formula 1 at their concentration of 1 μM.

Histaminergic H3 = Histaminergic H3 (Homo sapiens, UniProt Q9Y5N1); assay: competitive radioligand binding, Histaminergic H3; conditions: compound concentration of 1 μM; read-out: radio-labelled ligand displacement, Histaminergic H3
Description: as §1

Histaminergic H2 = Histaminergic H2 (Homo sapiens, UniProt P25021); assay: competitive radioligand binding, Histaminergic H2; conditions: compound concentration of 1 μM; read-out: radio-labelled ligand displacement, Histaminergic H2
Description: as §1

Histaminergic H1 = Histaminergic H1 (Homo sapiens, UniProt P35367); assay: competitive radioligand binding, Histaminergic H1; conditions: compound concentration of 1 μM; read-out: radio-labelled ligand displacement, Histaminergic H1
Description: as §1

Serotoninergic 5-HT2B = Serotoninergic 5-HT2B (Homo sapiens, UniProt P41595); assay: competitive radioligand binding, Serotoninergic 5-HT2B; conditions: read-out: radio-labelled ligand displacement, Serotoninergic 5-HT2B
Description: as §1

Dopaminergic D2S = Dopaminergic D2S (Homo sapiens, UniProt P14416); assay: competitive radioligand binding, Dopaminergic D2S; conditions: compound concentration of 1 μM; read-out: radio-labelled ligand displacement, Dopaminergic D2S
Description: as §1

Serotoninergic 5-HT2A = Serotoninergic 5-HT2A (Homo sapiens, UniProt P28223); assay: competitive radioligand binding, Serotoninergic 5-HT2A; conditions: read-out: radio-labelled ligand displacement, Serotoninergic 5-HT2A
Description: as §1

Serotoninergic 5-HT6 = Serotoninergic 5-HT6 (Homo sapiens, UniProt P50406); assay: competitive radioligand binding, Serotoninergic 5-HT6; conditions: compound concentration of 1 μM; read-out: radio-labelled ligand displacement, Serotoninergic 5-HT6
Description: as §1

Adrenergic α2A = biological target: T1, Adrenergic α2A (Homo sapiens, UniProt P08913); assay: competitive radioligand binding, Adrenergic α2A; conditions: read-out: radio-labelled ligand displacement, Adrenergic α2A
T1 sequence (P08913 1-465): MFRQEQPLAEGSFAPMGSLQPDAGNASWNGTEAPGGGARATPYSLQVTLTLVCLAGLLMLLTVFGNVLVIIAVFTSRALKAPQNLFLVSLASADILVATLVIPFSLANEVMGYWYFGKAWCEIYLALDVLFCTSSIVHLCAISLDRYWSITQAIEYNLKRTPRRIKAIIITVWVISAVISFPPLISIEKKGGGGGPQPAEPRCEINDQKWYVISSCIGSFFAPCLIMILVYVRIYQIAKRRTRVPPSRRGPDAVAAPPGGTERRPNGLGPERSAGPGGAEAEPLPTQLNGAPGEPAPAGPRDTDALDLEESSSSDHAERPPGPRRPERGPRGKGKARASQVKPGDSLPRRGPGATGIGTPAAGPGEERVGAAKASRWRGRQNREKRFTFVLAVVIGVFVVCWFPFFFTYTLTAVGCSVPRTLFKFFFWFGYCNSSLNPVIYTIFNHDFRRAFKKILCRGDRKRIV
Description: as §1

Dopaminergic D3 = Dopaminergic D3 (Homo sapiens, UniProt P35462); assay: competitive radioligand binding, Dopaminergic D3; conditions: compound concentration of 1 μM; read-out: radio-labelled ligand displacement, Dopaminergic D3
Description: as §1

Serotoninergic 5-HT1A = biological target: T2, Serotoninergic 5-HT1A (Homo sapiens, UniProt P08908); assay: competitive radioligand binding, Serotoninergic 5-HT1A; conditions: compound concentration of 1 μM; read-out: radio-labelled ligand displacement, Serotoninergic 5-HT1A
T2 sequence (P08908 1-422): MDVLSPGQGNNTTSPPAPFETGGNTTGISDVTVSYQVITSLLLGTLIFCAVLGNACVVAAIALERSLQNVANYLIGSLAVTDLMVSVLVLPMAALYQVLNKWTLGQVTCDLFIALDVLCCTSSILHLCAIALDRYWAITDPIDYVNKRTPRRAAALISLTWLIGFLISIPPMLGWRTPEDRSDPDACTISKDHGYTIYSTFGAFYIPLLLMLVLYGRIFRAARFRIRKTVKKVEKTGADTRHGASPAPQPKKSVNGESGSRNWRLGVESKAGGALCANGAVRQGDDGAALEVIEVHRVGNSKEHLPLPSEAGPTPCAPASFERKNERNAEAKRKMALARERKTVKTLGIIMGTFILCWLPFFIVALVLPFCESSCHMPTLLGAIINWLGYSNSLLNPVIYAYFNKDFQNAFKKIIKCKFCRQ
Description: as §1

Adrenergic α1D = biological target: T3, Adrenergic α1D (Homo sapiens, UniProt P25100); assay: competitive radioligand binding, Adrenergic α1D; conditions: compound concentration of 1 μM; read-out: radio-labelled ligand displacement, Adrenergic α1D
T3 sequence (P25100 1-572): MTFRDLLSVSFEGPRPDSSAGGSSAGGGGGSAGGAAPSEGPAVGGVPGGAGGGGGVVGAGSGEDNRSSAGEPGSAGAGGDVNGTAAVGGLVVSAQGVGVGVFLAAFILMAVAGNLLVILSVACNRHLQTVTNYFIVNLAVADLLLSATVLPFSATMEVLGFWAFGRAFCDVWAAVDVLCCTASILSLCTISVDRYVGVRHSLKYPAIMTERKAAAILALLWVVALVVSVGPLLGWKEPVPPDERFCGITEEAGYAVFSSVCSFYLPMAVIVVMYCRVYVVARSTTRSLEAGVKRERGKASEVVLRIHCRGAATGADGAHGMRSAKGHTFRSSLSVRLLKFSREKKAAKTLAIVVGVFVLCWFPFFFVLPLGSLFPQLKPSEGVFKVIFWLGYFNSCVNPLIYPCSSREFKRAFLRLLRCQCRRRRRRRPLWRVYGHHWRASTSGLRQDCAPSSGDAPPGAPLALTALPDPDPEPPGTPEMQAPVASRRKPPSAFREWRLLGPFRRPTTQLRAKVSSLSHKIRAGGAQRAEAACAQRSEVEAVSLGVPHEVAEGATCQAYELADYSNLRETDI
Description: as §1

Serotoninergic 5-HT7 = Serotoninergic 5-HT7 (Homo sapiens, UniProt P34969); assay: competitive radioligand binding, Serotoninergic 5-HT7; conditions: compound concentration of 1 μM; read-out: radio-labelled ligand displacement, Serotoninergic 5-HT7
Description: as §1

Dopaminergic D1 = Dopaminergic D1 (Homo sapiens, UniProt P21728); assay: competitive radioligand binding, Dopaminergic D1; conditions: compound concentration of 1 μM; read-out: radio-labelled ligand displacement, Dopaminergic D1
Description: as §1

Sequence of Serotoninergic 5-HT2A (P28223 whole entry): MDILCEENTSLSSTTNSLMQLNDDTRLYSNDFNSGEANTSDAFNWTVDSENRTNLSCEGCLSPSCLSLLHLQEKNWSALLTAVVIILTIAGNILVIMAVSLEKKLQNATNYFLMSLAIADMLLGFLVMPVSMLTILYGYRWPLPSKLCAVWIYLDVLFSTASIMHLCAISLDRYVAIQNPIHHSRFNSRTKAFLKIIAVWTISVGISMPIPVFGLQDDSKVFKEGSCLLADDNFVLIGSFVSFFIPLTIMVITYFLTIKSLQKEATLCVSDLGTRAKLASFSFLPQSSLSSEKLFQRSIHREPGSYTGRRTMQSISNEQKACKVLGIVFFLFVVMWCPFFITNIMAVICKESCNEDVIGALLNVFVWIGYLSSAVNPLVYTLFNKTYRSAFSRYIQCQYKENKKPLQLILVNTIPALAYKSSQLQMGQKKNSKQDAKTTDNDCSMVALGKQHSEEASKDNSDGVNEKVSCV
Sequence of Serotoninergic 5-HT2B (P41595 whole entry): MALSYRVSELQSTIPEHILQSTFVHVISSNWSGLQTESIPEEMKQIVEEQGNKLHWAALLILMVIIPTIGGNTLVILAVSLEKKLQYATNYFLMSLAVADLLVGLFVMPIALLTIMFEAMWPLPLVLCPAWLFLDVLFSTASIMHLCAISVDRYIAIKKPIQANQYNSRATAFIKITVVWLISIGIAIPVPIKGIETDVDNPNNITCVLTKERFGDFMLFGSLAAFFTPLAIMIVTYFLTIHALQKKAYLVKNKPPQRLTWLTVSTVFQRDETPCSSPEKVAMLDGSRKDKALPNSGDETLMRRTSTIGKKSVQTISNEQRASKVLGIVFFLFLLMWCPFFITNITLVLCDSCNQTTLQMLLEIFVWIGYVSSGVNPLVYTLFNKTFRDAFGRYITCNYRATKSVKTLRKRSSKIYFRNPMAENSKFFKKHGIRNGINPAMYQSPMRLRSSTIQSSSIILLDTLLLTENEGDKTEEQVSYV
Sequence of Dopaminergic D1 (P21728 whole entry): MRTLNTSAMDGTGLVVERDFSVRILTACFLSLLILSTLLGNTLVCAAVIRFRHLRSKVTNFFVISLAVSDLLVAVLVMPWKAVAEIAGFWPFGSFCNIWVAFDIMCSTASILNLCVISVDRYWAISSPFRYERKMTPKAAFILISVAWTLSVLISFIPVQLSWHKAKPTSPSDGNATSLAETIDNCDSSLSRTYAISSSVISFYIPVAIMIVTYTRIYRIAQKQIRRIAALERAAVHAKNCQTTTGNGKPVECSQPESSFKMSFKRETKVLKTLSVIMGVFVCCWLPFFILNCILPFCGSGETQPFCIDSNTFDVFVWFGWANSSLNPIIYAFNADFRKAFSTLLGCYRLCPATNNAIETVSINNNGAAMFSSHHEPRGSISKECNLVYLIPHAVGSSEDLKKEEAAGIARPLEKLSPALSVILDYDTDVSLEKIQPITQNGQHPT
Sequence of Dopaminergic D3 (P35462 whole entry): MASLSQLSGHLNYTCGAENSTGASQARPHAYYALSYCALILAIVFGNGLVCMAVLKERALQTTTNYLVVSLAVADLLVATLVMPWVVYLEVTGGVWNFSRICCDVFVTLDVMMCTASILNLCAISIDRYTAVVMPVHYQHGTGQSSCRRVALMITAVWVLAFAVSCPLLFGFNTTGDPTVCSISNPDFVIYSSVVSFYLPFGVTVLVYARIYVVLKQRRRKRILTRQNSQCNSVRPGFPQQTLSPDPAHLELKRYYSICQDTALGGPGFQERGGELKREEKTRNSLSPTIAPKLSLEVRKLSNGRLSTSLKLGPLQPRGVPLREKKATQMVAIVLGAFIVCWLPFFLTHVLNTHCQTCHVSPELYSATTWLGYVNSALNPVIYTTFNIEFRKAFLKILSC
Sequence of Serotoninergic 5-HT7 (P34969 whole entry): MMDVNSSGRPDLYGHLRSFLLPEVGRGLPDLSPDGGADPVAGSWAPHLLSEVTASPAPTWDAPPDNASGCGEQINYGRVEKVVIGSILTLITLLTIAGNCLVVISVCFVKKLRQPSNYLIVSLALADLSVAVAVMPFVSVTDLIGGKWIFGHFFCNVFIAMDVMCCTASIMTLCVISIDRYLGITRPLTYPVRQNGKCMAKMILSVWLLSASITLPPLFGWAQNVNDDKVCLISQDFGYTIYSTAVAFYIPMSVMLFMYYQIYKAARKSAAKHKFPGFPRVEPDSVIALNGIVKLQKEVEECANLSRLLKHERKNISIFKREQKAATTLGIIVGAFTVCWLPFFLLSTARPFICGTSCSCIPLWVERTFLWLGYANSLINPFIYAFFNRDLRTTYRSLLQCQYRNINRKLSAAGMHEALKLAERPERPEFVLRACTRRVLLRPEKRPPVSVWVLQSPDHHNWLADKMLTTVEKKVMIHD
Sequence of Histaminergic H3 (Q9Y5N1 whole entry): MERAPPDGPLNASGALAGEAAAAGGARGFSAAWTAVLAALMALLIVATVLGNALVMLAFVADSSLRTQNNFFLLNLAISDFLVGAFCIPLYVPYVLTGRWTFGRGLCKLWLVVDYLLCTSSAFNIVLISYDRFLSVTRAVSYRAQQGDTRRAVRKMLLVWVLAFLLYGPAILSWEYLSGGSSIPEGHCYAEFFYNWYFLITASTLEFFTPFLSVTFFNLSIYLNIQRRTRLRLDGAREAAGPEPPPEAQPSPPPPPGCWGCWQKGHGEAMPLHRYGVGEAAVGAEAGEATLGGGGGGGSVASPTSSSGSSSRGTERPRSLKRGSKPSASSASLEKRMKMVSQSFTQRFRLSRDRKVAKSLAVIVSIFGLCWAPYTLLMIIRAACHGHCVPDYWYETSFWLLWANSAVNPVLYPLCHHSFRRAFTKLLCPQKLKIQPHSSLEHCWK
Sequence of Histaminergic H2 (P25021 whole entry): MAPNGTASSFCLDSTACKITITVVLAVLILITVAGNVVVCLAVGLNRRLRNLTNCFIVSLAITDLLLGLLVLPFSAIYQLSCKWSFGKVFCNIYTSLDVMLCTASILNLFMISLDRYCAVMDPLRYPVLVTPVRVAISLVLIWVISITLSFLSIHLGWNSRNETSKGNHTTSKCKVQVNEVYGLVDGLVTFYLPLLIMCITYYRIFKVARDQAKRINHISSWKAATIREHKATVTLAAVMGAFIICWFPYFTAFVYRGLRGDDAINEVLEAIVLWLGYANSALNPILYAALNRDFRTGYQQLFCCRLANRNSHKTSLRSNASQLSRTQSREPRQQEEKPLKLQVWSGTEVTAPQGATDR
Sequence of Serotoninergic 5-HT6 (P50406 whole entry): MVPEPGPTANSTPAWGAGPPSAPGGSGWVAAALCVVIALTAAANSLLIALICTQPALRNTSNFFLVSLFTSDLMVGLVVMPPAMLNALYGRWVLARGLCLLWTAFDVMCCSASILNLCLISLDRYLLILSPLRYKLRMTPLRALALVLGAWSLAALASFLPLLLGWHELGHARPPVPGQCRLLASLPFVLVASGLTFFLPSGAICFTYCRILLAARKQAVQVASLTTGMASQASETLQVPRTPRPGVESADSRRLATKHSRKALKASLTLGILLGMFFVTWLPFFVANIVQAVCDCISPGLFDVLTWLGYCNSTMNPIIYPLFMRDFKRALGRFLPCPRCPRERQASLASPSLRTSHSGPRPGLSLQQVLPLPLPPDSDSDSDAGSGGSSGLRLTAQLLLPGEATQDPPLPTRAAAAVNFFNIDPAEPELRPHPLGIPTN
Sequence of Dopaminergic D2S (P14416 1-414 isoform P14416-2): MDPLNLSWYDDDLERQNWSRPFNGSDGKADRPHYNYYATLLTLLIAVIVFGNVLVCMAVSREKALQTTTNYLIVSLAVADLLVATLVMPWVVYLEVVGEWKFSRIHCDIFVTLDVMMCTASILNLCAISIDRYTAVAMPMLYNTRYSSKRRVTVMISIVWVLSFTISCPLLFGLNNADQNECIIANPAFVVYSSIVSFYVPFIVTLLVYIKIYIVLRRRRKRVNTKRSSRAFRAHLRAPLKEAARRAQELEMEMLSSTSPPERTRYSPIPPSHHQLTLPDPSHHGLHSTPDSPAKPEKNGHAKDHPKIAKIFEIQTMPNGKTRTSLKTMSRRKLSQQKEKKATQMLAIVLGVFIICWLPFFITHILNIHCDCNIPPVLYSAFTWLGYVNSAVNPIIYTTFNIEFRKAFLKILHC
Sequence of Histaminergic H1 (P35367 whole entry): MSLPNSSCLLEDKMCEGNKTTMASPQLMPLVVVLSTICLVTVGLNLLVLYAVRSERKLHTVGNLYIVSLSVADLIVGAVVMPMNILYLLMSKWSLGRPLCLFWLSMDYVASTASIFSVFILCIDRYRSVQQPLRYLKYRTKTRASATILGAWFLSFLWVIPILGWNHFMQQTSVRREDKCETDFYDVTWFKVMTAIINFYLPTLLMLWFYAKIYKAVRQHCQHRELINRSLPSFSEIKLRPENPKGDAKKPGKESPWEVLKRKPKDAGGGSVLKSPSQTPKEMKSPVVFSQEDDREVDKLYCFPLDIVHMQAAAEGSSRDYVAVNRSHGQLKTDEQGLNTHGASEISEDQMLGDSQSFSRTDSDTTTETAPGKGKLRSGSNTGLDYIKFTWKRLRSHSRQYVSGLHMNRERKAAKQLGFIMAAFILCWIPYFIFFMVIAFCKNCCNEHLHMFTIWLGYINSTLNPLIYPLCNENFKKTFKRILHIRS

| SMILES | radio-labelled ligand displacement, Serotoninergic 5-HT1B (Serotoninergic 5-HT1B) | inhibition at 1 µM (Histaminergic H3) | inhibition at 1 µM (Histaminergic H2) | inhibition at 1 µM (Histaminergic H1) | inhibition at 1 µM (Serotoninergic 5-HT2B; compound concentration of 1 μM) | inhibition at 1 µM (Dopaminergic D2S) | inhibition at 1 µM (Serotoninergic 5-HT2A) | inhibition at 1 µM (Serotoninergic 5-HT6) | inhibition at 1 µM (Adrenergic α2A; compound concentration of 1 μM) | inhibition at 1 µM (Dopaminergic D3) | inhibition at 1 µM (Serotoninergic 5-HT1A) | inhibition at 1 µM (Adrenergic α1D) | inhibition at 1 µM (Serotoninergic 5-HT7) | inhibition at 1 µM (Dopaminergic D1) | inhibition at 1 µM (Serotoninergic 5-HT2B) | inhibition at 1 µM (Adrenergic α2A) |
| --- | --- | --- | --- | --- | --- | --- | --- | --- | --- | --- | --- | --- | --- | --- | --- | --- |
| Cc1cc2c(s1)c1c(n2-c2cccc(F)c2)CCN(C)C1 [2.4(3)•HCl, 2,7-dimethyl-4-(3-fluorophenyl)-5,6,7,8-tetrahydro-4H-thieno[2′,3′:4,5]pyrrolo[3,2-c]pyridine] | 5% | 1% | 29% | 38% | 39% | 3% | 41% | 26% | 14% | 11% | 3% | 28% | 43% | 5% | – | – |
| Cc1cc2c(s1)c1c(n2CCc2ccccc2)CCN(C)C1.Cl [2.6(1)•HCl, 2,7-Dimethyl-4-(2-phenylethyl)-5,6,7,8-tetrahydro-4H-thieno[2′,3′:4,5]pyrrolo[3,2-c]pyridine hydrochloride] | 18% | -15% | 56% | 97% | – | 73% | 99% | 98% | – | 62% | 16% | 64% | 98% | 15% | 79% | 80% |
| Cc1ccc(Cn2c3c(c4sc(Cl)cc42)C(C)N(C)C(C)C3)cn1 (stereo not shown) [2.5(4)•HCl, 4-(6-methylpyridin-3-ylmethyl)-6,7,8-trimethyl-2-chloro-5,6,7,8-tetrahydro-4H-thieno[2′,3′:4,5]pyrrolo[3,2-c]pyridine] | 28% | 9% | 83% | 70% | 78% | 17% | 91% | 85% | 42% | 15% | 35% | 29% | 87% | 3% | – | – |
| Cc1cc2c(s1)c1c(n2Cc2ccccc2)CCN(C)C1.Cl [2.5(1)•HCl, 4-Benzyl-2,7-dimethyl-5,6,7,8-tetrahydro-4H-thieno[2′,3′:4,5]pyrrolo[3,2-c]pyridine hydrochloride] | 6% | -4% | 44% | 96% | – | -6% | 93% | 55% | – | 16% | 3% | 21% | 92% | 5% | 91% | 34% |
| Cc1cc2c3c(n(Cc4ccccc4)c2s1)CCN(C)C3.Cl [3.5(1)•HCl, 8-Benzyl-2,5-dimethyl-5,6,7,8-tetrahydro-4H-thieno[3′,2′:4,5]pyrrolo[3,2-c]pyridine hydrochloride] | 10% | 18% | 91% | 96% | – | 23% | 100% | 85% | – | 19% | 42% | 44% | 95% | 5% | 90% | 64% |
| Cc1cc2c3c(n(CCc4ccccc4)c2s1)CCN(C)C3.Cl [3.6(1)•HCl, 2,5-Dimethyl-8-(2-phenylethyl)-5,6,7,8-tetrahydro-4H-thieno[3′,2′:4,5]pyrrolo[3,2-c]pyridine hydrochloride] | 47% | -17% | 96% | 98% | – | 86% | 101% | 103% | – | 73% | 48% | 92% | 99% | 70% | 92% | 100% |
| Cc1cc2c3c(n(Cc4ccccc4)c2s1)CC1CCC3N1C (stereo not shown) [3.13(1)•HCl, 9-benzyl-2,10-dimethyl-4,5,6,7,8,9-hexahydro-4,7-epiminocyclohepta[b]thieno[3,2-d]pyrrole] | 20% | 12% | 70% | 88% | – | 25% | 95% | 67% | – | 21% | 19% | 43% | 79% | 40% | 90% | 65% |
| CC1Cc2c(c3sc(Cl)cc3n2C#Cc2cccc(F)c2)C(C)N1C (stereo not shown) [2.10(3)•HCl, 6,7,8-trimethyl-4-(3-fluorophenyl)ethynyl-2-chloro-5,6,7,8-tetrahydro-4H-thieno[2′,3′:4,5]pyrrolo[3,2-c]pyridine] | 9% | -10% | 33% | 65% | 39% | 31% | 43% | 35% | 17% | 23% | 6% | 11% | 33% | 4% | – | – |
